Consider eleven molecules from patent US20240269298A1, “PHOSPHONYL DERIVATIVE, AND COMPOSITION AND PHARMACEUTICAL APPLICATION THEREOF” (XIZANG HAISCO PHARMACEUTICAL CO., LTD., priority 2021, published 2024).

Where two headings read alike, the source gives them in different places.

The subject of one series is A431 (EGFR-WT) cells. The series is described as follows: Inhibitory activity on proliferation of A431 (EGFR-WT) cells (CTG, 72 h). The class given is cell-based. Particulars: Homo sapiens, A-431. An outline of the steps:
(§1)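 Cells plated at 1000/well (NCI-H1975, RPMI1640+10% FBS) or 3000/well (A431, DMEM+10% FBS), dosed next day with compounds (0.1% DMSO final) for 72 h at 37 °C, 5% CO2. Viability by CTG luminescence, normalised to vehicle control; IC50 from nonlinear-regression dose-survival curves.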

Series [1] deals with NCI-H1975 (EGFR-L858R-T790M) cells. As to the kind of experiment: Inhibitory activity on proliferation of NCI-H1975 (EGFR-L858R-T790M) cells (CTG, 72 h). The class given is cell-based. Particulars: Homo sapiens. An outline of the steps: as §1
Series [2] can be described thus: Pharmacokinetic test in mice. It counts as in vivo. The following applies: male, ICR, mouse, po, administration i.g. (10 mg/kg), plasma. As to the method:
Test objective: In this experiment, a single dose of test compounds was administered to ICR mice intravenously and intragastrically, the concentrations of the test compounds in plasma of mice were measured, and the pharmacokinetic characteristics and bioavailability of the test compounds in mice were evaluated.
Experimental animals: male ICR mice, 20-25 g, purchased from BEIJING HFK BIOSCIENCE CO., LTD. with the laboratory animal production license number of SCXK (JING) 2019-0008; or purchased from CHENGDU DDOSSY EXPERIMENTAL ANIMALS CO., LTD. (SCXK (CHUAN) 2020-030); or purchased from HUNAN SJA LABORATORY ANIMAL CO., LTD. (SCXK (XIANG) 2019-0004).
Experimental method: on the day of the experiment, ICR mice were randomly grouped according to their body weights. The mice were fasted with water available for 12 to 14 hours one day before the administration, and were fed 4 hours after the administration.
Sampling: before and after the administration, blood was taken from the orbits of the mice under isoflurane anesthesia, and placed in an EDTAK2 centrifuge tube. Centrifugation was carried out at 5000 rpm at 4° C. for 10 min, and the plasma was collected.
Time points for plasma collection in G1&G2 groups: 0, 5 min, 15 min, 30 min, 1h, 2h, 4h, 6h, 8h, and 24 h; • time points for plasma collection in G3 group: 0, 5 min, 15 min, 30 min, 1 h, 2 h, 4 h, 6h, 8h, and 24 h; • before analysis and detection, all samples were stored at −80° C. The samples were analyzed quantitatively by LC-MS/MS.

Where [3] appears, read: read-out: IC50 (value in brackets).

For the molecule `COc1cc(N2CCC(CN3CCC4(CCCN(c5ccc6c(c5)C(=O)N(C5CCC(=O)NC5=O)C6=O)C4)CC3)CC2)c(-c2cnn(C)c2)cc1Nc1ncc(Br)c(Nc2ccc(-c3ccccc3)cc2P(C)(C)=O)n1` (centres unmarked) [Compound 38, 5-(9-((1-(4-((5-bromo-4-((3-(dimethylphosphoryl)-[1,1′-biphenyl]-4-yl)amino)pyrimidin-2-yl)amino)-5-methoxy-2-(1-methyl-1H-pyrazol-4-yl)phenyl)piperidin-4-yl)methyl)-2,9-diazaspiro[5.5]undecan-2-yl)-2-(2,6-dioxopiperidin-3-yl)isoindoline-1,3-dione], the IC50 was no less than 10000 nM with A431 (EGFR-WT) cells, less than 100 nM in series [1] (read-out: IC50 (class symbol)) and 60 nM in series [1] (setting [3]). The area under the curve AUC(0-t) in series [2] amounted to 3730 ng·h/mL.

For `COc1cc(N2CCC(CN3CCC4(CC3)CCN(c3ccc5c(c3)C(=O)N(C3CCC(=O)NC3=O)C5=O)CC4)CC2)c(-c2cnn(C)c2)cc1Nc1ncc(Cl)c(Nc2ccc(-c3ccccc3)cc2P(C)(C)=O)n1` (centres unmarked) [Compound 48, 5-(9-((1-(4-((5-chloro-4-((3-(dimethylphosphoryl)-[1,1′-biphenyl]-4-yl)amino)pyrimidin-2-yl)amino)-5-methoxy-2-(1-methyl-1H-pyrazol-4-yl)phenyl)piperidin-4-yl)methyl)-3,9-diazaspiro[5.5]undecan-3-yl)-2-(2,6-dioxopiperidin-3-yl)isoindoline-1,3-dione], the half-maximal inhibitory concentration (IC50) in the series with A431 (EGFR-WT) cells was no less than 10000 nM; in series [1] (read-out: IC50 (class symbol)), less than 100 nM; in series [1] (setting [3]), 32 nM. Further, the area under the curve AUC(0-t) in series [2] is 7790 ng·h/mL.

Take `COc1cc(N2CCC(N3CCN(C4CC5(CCN(c6ccc7c(c6)C(=O)N(C6CCC(=O)NC6=O)C7=O)CC5)C4)CC3)CC2)c(-c2cnn(C)c2)cc1Nc1ncc(Br)c(Nc2ccc(-c3ccccc3)cc2P(C)(C)=O)n1` (centres unmarked) [Compound 63, 5-(2-(4-(1-(4-((5-bromo-4-((3-(dimethylphosphoryl)-[1,1′-biphenyl]-4-yl)amino)pyrimidin-2-yl)amino)-5-methoxy-2-(1-methyl-1H-pyrazol-4-yl)phenyl)piperidin-4-yl)piperazin-1-yl)-7-azaspiro[3.5]nonan-7-yl)-2-(2,6-dioxopiperidin-3-yl)isoindoline-1,3-dione]: the IC50 in the series on A431 (EGFR-WT) cells is no less than 10000 nM; in series [1] (read-out: IC50 (class symbol)), less than 100 nM; in series [1] (setting [3]) it was 90 nM. This molecule also had an area under the curve AUC(0-t) in series [2] of 14700 ng·h/mL.

In the case of `COc1cc(N2CCN(c3ccc4c(c3)C(=O)N(C3CCC(=O)NC3=O)C4=O)CC2)c(-c2cnn(C)c2)cc1Nc1ncc(Cl)c(Nc2ccc(-c3ccccc3)cc2P(C)(C)=O)n1` (centres unmarked) [Compound 98, 5-(4-(4-((5-chloro-4-((3-(dimethylphosphoryl)-[1,1′-biphenyl]-4-yl)amino)pyrimidin-2-yl)amino)-5-methoxy-2-(1-methyl-1H-pyrazol-4-yl)phenyl)piperazin-1-yl)-2-(2,6-dioxopiperidin-3-yl)isoindoline-1,3-dione], the IC50 with A431 (EGFR-WT) cells was no less than 10000 nM; in series [1] (read-out: IC50 (class symbol)), 100 to 500 nM; in series [1] (setting [3]), 101 nM. This molecule registered an exposure (AUC) in series [2] of 69800 ng·h/mL. The molecule further showed a half-life in series [2] of 10.9 h.

As for `COc1cc(N2CCC(CN3CCC4(CCCN(c5ccc6c(c5)C(=O)N(C5CCC(=O)NC5=O)C6=O)C4)CC3)CC2)c(-c2cnn(C)c2)cc1Nc1ncc(Cl)c(Nc2ccc(-c3ccccc3)cc2P(C)(C)=O)n1` (centres unmarked) [Compound 89, 5-(9-((1-(4-((5-chloro-4-((3-(dimethylphosphoryl)-[1,1′-biphenyl]-4-yl)amino)pyrimidin-2-yl)amino)-5-methoxy-2-(1-methyl-1H-pyrazol-4-yl)phenyl)piperidin-4-yl)methyl)-2,9-diazaspiro[5.5]undecan-2-yl)-2-(2,6-dioxopiperidin-3-yl)isoindoline-1,3-dione], the IC50 with A431 (EGFR-WT) cells is no less than 10000 nM; in series [1] (read-out: IC50 (class symbol)), less than 100 nM; in series [1] (setting [3]), 84 nM. Moreover, in series [2], the exposure AUC(0-t) was determined as 8430 ng·h/mL.

As to `COc1cc(N2CCC(N3CCN(CC4CCN(c5cc6c(cc5F)C(=O)N(C5CCC(=O)NC5=O)C6=O)CC4)CC3)CC2)c(-c2cnn(C)c2)cc1Nc1ncc(Cl)c(Nc2ccc(-c3ccccc3)cc2P(C)(C)=O)n1` (centres unmarked) [Compound 93, 5-(4-((4-(1-(4-((5-chloro-4-((3-(dimethylphosphoryl)-[1,1′-biphenyl]-4-yl)amino)pyrimidin-2-yl)amino)-5-methoxy-2-(1-methyl-1H-pyrazol-4-yl)phenyl)piperidin-4-yl)piperazin-1-yl)methyl)piperidin-1-yl)-2-(2,6-dioxopiperidin-3-yl)-6-fluoroisoindoline-1,3-dione], the IC50 in the series with A431 (EGFR-WT) cells is no less than 10000 nM; in series [1] (read-out: IC50 (class symbol)), less than 100 nM; in series [1] (setting [3]), 49 nM. Also, the AUC(0-t) in series [2] is 4620 ng·h/mL.

As to `COc1cc(N2CCC(N3CCN(CC4CCN(c5ccc6c(c5)C(=O)N(C5CCC(=O)NC5=O)C6=O)CC4)CC3)CC2)c(-c2cnn(C)c2)cc1Nc1ncc(Cl)c(Nc2ccc(-c3ccccc3)cc2P(C)(C)=O)n1` (centres unmarked) [Compound 58, 5-(4-((4-(1-(4-((5-chloro-4-((3-(dimethylphosphoryl)-[1,1′-biphenyl]-4-yl)amino)pyrimidin-2-yl)amino)-5-methoxy-2-(1-methyl-1H-pyrazol-4-yl)phenyl)piperidin-4-yl)piperazin-1-yl)methyl)piperidin-1-yl)-2-(2,6-dioxopiperidin-3-yl)isoindoline-1,3-dione], the concentration for half-maximal inhibition (IC50) is no less than 10000 nM with A431 (EGFR-WT) cells, less than 100 nM in series [1] (read-out: IC50 (class symbol)) and 72 nM in series [1] (setting [3]). In series [2], this molecule registered an AUC(0-t) of 16300 ng·h/mL.

As for `COc1cc(N2CCC(N3CCC4(CCCN(c5cc6c(cc5F)C(=O)N(C5CCC(=O)NC5=O)C6=O)C4)CC3)CC2)c(-c2cnn(C)c2)cc1Nc1ncc(Br)c(Nc2ccc(-c3ccccc3)cc2P(C)(C)=O)n1` (centres unmarked) [Compound 88, 5-(9-(1-(4-((5-bromo-4-((3-(dimethylphosphoryl)-[1,1′-biphenyl]-4-yl)amino)pyrimidin-2-yl)amino)-5-methoxy-2-(1-methyl-1H-pyrazol-4-yl)phenyl)piperidin-4-yl)-2,9-diazaspiro[5.5]undecan-2-yl)-2-(2,6-dioxopiperidin-3-yl)-6-fluoroisoindoline-1,3-dione], the 50% inhibitory concentration (IC50) in the series with A431 (EGFR-WT) cells was no less than 10000 nM; in series [1] (read-out: IC50 (class symbol)) it was less than 100 nM; in series [1] (setting [3]) it was 67 nM. The molecule further gave an AUC(0-t) in series [2] of 5120 ng·h/mL.

Consider `COc1cc(N2CCC(N3CCN(CC4CCN(c5ccc6c(c5)C(=O)N(C5CCC(=O)NC5=O)C6=O)CC4)CC3)CC2)c(-c2cnn(C)c2)cc1Nc1ncc(Br)c(Nc2ccc(C3CC3)cc2P(C)(C)=O)n1` (centres unmarked) [Compound 55, 5-(4-((4-(1-(4-((5-bromo-4-((4-cyclopropyl-2-(dimethylphosphoryl)phenyl)amino)pyrimidin-2-yl)amino)-5-methoxy-2-(1-methyl-1H-pyrazol-4-yl)phenyl)piperidin-4-yl)piperazin-1-yl)methyl)piperidin-1-yl)-2-(2,6-dioxopiperidin-3-yl)isoindoline-1,3-dione], for which the results for the IC50 (with A431 (EGFR-WT) cells; in series [1] (read-out: IC50 (class symbol)); in series [1] (setting [3])) were no less than 10000 nM, less than 100 nM and 30 nM, respectively. In addition, the AUC(0-t) in series [2] was determined as 19900 ng·h/mL.

Consider `COc1cc(N2CCC3(CCN(CC4CCN(c5cc6c(cc5F)C(=O)N(C5CCC(=O)NC5=O)C6=O)CC4)CC3)CC2)c(-c2cnn(C)c2)cc1Nc1ncc(Br)c(Nc2ccc(-c3ccccc3)cc2P(C)(C)=O)n1` (centres unmarked) [Compound 39, 5-(4-((9-(4-((5-bromo-4-((3-(dimethylphosphoryl)-[1,1′-biphenyl]-4-yl)amino)pyrimidin-2-yl)amino)-5-methoxy-2-(1-methyl-1H-pyrazol-4-yl)phenyl)-3,9-diazaspiro[5.5]undecan-3-yl)methyl)piperidin-1-yl)-2-(2,6-dioxopiperidin-3-yl)-6-fluoroisoindoline-1,3-dione], for which the figures for the half-inhibitory concentration (IC50) in series [1] (read-out: IC50 (class symbol)) and in series [1] (setting [3]) were less than 100 nM and 51 nM, respectively. The molecule further registered an AUC(0-t) in series [2] of 6000 ng·h/mL.

In the case of `COc1cc(N2CCC(CN3CCN(c4ccc5c(c4)C(=O)N(C4CCC(=O)NC4=O)C5=O)CC3)CC2)c(-c2cnn(C)c2)cc1Nc1ncc(Cl)c(Nc2ccc(F)cc2P(C)(C)=O)n1` (centres unmarked) [Compound 142, 5-(4-((1-(4-((5-chloro-4-((2-(dimethylphosphoryl)-4-fluorophenyl)amino)pyrimidin-2-yl)amino)-5-methoxy-2-(1-methyl-1H-pyrazol-4-yl)phenyl)piperidin-4-yl)methyl)piperazin-1-yl)-2-(2,6-dioxopiperidin-3-yl)isoindoline-1,3-dione], the half-maximal inhibitory concentration (IC50) in series [1] (read-out: IC50 (class symbol)) was less than 100 nM. Further, in series [1] (setting [3]), the concentration for half-maximal inhibition (IC50) came to 33 nM. Besides, in series [2], the AUC turned out to be 104000 ng·h/mL and the half-life was 5.12 h.
